The molecules below were run on α- and β-secretase cleavage of APP (assay: Western blot of intracellular APP-C99 and APP-C83 in rat primary neurons exposed to NMDAR modulators). Details: 15 DIV, compared to the untreated control, NMDA, D-serine 30µM for 3 minutes, memantine 30µM for 16 hours, DAPT 1 µM for 16 hours.
Type: cell-based
Experimental: Neuronal cultures and treatments. Cortical and hippocampal neurons were cultured as described^27 from postnatal day 0 rats or mice and all treatments described bellow carried out at 15 days in vitro (DIV). Stimulations with 30µM N-methyl-D-aspartate (NMDA, Tocris), 30µM D-serine (the D isoform of the amino acid serine, Sigma), or a combination of NMDA + D-serine (30µM each) were carried out for 3 minutes and neurons transferred into trophically enriched medium and further incubated for 16 hours. Treatments with 30µM 1-amino-3,5-dimethyladamantane (memantine, Lucerna-Chem), 1 µM N-[N-(3,5-difluorophenacetyl)-L-alanyl]-S-phenylgly cine t-butyl ester (DAPT, ), and 1 µM phorbol 12-myristate 13-acetate (PMA, Sigma) were carried out for 16 hours. Pre-treatments with 1 µM TAPI-1 (Calbiochem), 1 µM GL189 (Calbiochem), 1,2-bis(o-aminophenoxy)ethane-N,N,N',N'-tetraacetic acid (BAPTA, Sigma), H-89, chelerythrine, or KN-62 (Biaffin GmbH & Co KG) were carried out for 1 hour. Next, neurons were treated (or not) with NMDA or NMDA + D-serine as described above, and cells transferred into trophically enriched medium and incubated for additional 15 hours. Whole cell lysates were prepared for Western blot analysis as described below.
Western blotting and antibodies. Cells were washed with cold phosphate-bufferd saline containing 2 mM EDTA and homogenized in 50 mM Tris-HCL pH 7.4, 350 mM NaCl, 100 mM DTT, 0.1% SDS, 0.5% NP-40 and a cocktail of protease inhibitors (Roche Diagnostics). Protein whole cell extracts were separated on 4-12% Bis-tris gels (Invitrogen) and transferred onto nitrocellulose membranes to detect APP-FL, APP-C99, APP-C83 and AICD (CT15, Sigma), sAPPα (6E10, Signet), Notch-FL and NICD (Sigma), ADAM10 (Calbiochem), ADAM17 (Calbiochem), BACE1 (EE17, Sigma), NCT (NCT164, BD Bioscience), PS1-FL and PS1-NTF (MAB1536, Chemicon International), Pen-2 (UD-1, 1:500, a gift of Helena Karlström), and β-Action (Sigma).
In the case of `N[C@H](CO)C(=O)O` [D-serine], the “intracellular accumulation of APP-C99 and APP-C83” value (from here on “intracellular accumulation”) is reported as “did not affect the production of APP-C99/APP-C83”. For `C[C@H](NC(=O)Cc1cc(F)cc(F)c1)C(=O)N[C@H](C(=O)OC(C)(C)C)c1ccccc1` [DAPT, N-[N-(3,5-difluorophenacetyl)-L-alanyl]-S-phenylglycine t-butyl ester], the “intracellular accumulation” value was “increased levels of both APP-C83 and APP-C99”. With `CC12CC3CC(C)(C1)CC(N)(C3)C2` [memantine, 1-amino-3,5-dimethyladamantane] the “intracellular accumulation” value was “triggered the accumulation of APP-C83”.

Reference: EP2111858A1, “Novel treatment for alzheimer's disease” (EPFL Ecole Polytechnique Fédérale de Lausanne, priority 2008, dated 2009)
